Measurements from patent publication EP4310093A1, “AMINO ACID DERIVATIVE, PREPARATION METHOD THEREFOR, AND PHARMACEUTICAL COMPOSITION FOR TREATING HEPATITIS, COMPRISING SAME” (priority 2021, dated 2022).

Experiments:
Jurkat cell line = test: Cytotoxicity, WST-1 cell viability; assay type: cell-based, human; conditions: 0.2 µM ~ 50 µM, 24 and 48 hours
Procedure: For Example 1 (LCA-Ile), Example 44 (LCA-Val), Example 2 (UDCA-Ile), and Example 3 (UDCA-Val), cytotoxicity was evaluated in the Jurkat cell line, a human T lymphocyte-derived cell line. Jurkat cell lines were seeded at a density of 5 × 10^4 on a 96 well plate for overnight incubation, and each compound was treated at a concentration of 0.2 µM ~ 50 µM for 24 or 48 hours. WST-1, a reagent for measuring cell viability, was loaded at 10 µl/well, and absorbance was measured at 440 nm using a microplate reader 2 hours later. The mean value of negative control (NC) group treated with only DMSO was calculated as 1 and the cytotoxicity for the remaining experimental group was evaluated.

HBV [1] = test: Inhibition of intracellular HBV virus invasion, HBeAg ELISA analysis; assay type: cell-based; conditions: 20 µM, HepG2-NTCP cell line, HBV 3000 Geq/cell, O.D. at 450 nm
Procedure: (§1) In order to evaluate the ability to inhibit intracellular HBV virus entry (invasion), Enzyme-linked immunosorbent assay (ELISA) analysis to measure HBeAg, which is associated with high infectivity as an antigen in the HBV virus core portion, and Southern blot analysis to measure DNA of HBV were performed.
(§2) Specifically, the HepG2-NTCP cell line was cultured on a 6-well plate, incubation was performed overnight, HBV inhibitors were treated at a concentration of 20 µM, and the positive control Myrcludex-B (MyrB) was treated at a concentration of 200 nM, followed by culture for 24 hours. After HBV infection into the cells to make HBV 3000 genome equivalent per ml/cell (Geq/cell), the cell culture medium was replaced (medium changing, MC) a day after the viral infection to remove the virus unattached to cell membranes. In order to measure an amount of virus that entered the cell, medium changing (MC) was performed once more 4 days after viral infection. 2 days after replacement, HBeAg ELISA analysis was performed using a supernatant, and Southern blot analysis was performed with cell pellets.
HBeAg ELISA analysis was performed using an HBeAg ELISA kit (sanbio, Wantai HBeAg ELISA, cat#WB-2496) for the supernatant obtained by the method in Experimental Example 4-1.
First, a negative control group (Mock), positive control group (MyrB), and samples according to the present disclosure were loaded, by 50 µl each to be triplicate, onto a 96-well plate coated with capture Ab. In this case, Example 1 (LCA-ILE), Example 44 (LCA-Val), Example 52 (LCA-Tyr), Example 51 (LCA-Ser), Example 55 (LCA-Glu), Example 2 (UDCA-Ile), Example 3 (UDCA-Val), Example 25 (LCA-Val-Trp), Example 10 (DCA-Ile), Comparative Example 1 (LCA), and Comparative Example 2 (UDCA) were used as the sample.
The HRP-conjugated detection antibody was loaded into each well by 50 µl, followed by a reaction at 37°C for 30 minutes. Washing buffer (1X PBS, 0.5% Tween20) was added by 200 µl, and washing was performed 5 times. 50 µl of chromogen solution A and 50 µl of chromogen solution B were added to each well, and a reaction was carried out in the darkness at 37°C for 15 minutes. The stop solution was added to each well by 50 µl each to stop the reaction, and the amount of HBeAg was measured by measuring the absorbance (optical density, O.D.) level in the 450 nm wavelength band.

HBV [2] = test: Inhibition of intracellular HBV virus invasion, Southern blot analysis; assay type: cell-based
Procedure: as §1, §2
For the cell pellet obtained by the method of Experimental Example 4-1, Southern blot analysis for measurement of […] DNA was performed using Example 1 (LCA-Ile), Example 44 (LCA-Val), Example 52 (LCA-Tyr), Example 51 (LCA-Ser), Example 55 (LCA-Glu), Example 2 (UDCA-Ile), Example 3 (UDCA-Val), Example 25 (LCA-Val-Trp), Example 10 (DCA-Ile), Comparative Example 1 (LCA), and Comparative Example 2 (UDCA).
First, the cell pellets were pipetted with 100 µl of HEPES lysis buffer (10 mM HEPES, 100 mM NaCl, 1 mM EDTA, 1% NP-40), placed on ice for 20 minutes, and then centrifuged with a centrifuge under the conditions at 4°C and 13000 rpm. After transferring the supernatant only to the new microtube, 4.5 µl of nuclease buffer I (10 mM CaCl2, 12 mM MgCl2, DNase 10 units) was added to carry out a reaction at 37°C for 2 hours, and 40 µl of 26% PEG solution was added, followed by a reaction on ice for 1 hour. After centrifuging with the centrifuge at 4°C and 13000 rpm for 30 minutes, and the supernatant was removed cleanly. After releasing the pellets with 100 µl of nuclease buffer II (10 mM Tris, 8 mM CaCl2, 6mM MgCl2), 287.5 µl of 0.5% SDS buffer (25 mM Tris, 10 mM EDTA, 0.5% SDS, 100 mM NaCl) was added, and 12.5 µl of 20 mg/ml proteinase K was added, followed by a reaction at 37°C for 2 hours. 400 µl of phenol-chloroform-isoamyl alcohol was added, centrifugation was performed at room temperature at 13000 rpm after voltexing, the supernatant was transferred to a new tube, 40 µl of 3 M NaOAc was added, and 800 µl of 100% ethanol was added for inverting, followed by a reaction overnight at -20°C. After performing centrifugation at 4°C and 13000 rpm for 30 minutes, 800 µl of 70% ethanol was added and mixed to the pellet obtained by removing the supernatant, centrifugation was performed at 4°C and 13000 rpm for 10 minutes, and then the supernatant was discarded. The ethanol was dried for 5 minutes to leave only the HBV DNA pellets, and then the pellets were dissolved again in 15 µl of TE buffer (10 mM Tris, 1 mM EDTA). HBV DNA samples were loaded in 1% agarose gel, and electrophoresis was performed. It was then immersed in denature buffer (0.25 N NaOH, 1 M NaCl) for 30 minutes to denature dsDNA of HBV into ssDNA. The DNA in the gel was transferred to a Nylon membrane using a transfer buffer (0.4 M NaOH), the membrane was soaked with a 2X SSC buffer (sigma, cat# 85639) for neutralization, followed by drying in air. The membrane was immersed in a church buffer (10% BSA, 0.5 M EDTA, 1 M NaPi, 20% SDS), and the radioisotopes were hybridized using a Mega prime kit (GE healthcare, RPN1607). After washing three times with washing buffer (2X SSC, 0.1% SDS), measurement was performed using radioisotope measurement equipment, and a relative replication rate (%) to the negative control group (Mock) was calculated and shown.

CC[C@@H](C)[C@H](NC(=O)CC[C@@H](C)[C@H]1CC[C@H]2[C@@H]3CC[C@@H]4C[C@H](O)CC[C@]4(C)[C@H]3CC[C@]12C)C(=O)O [Example 1, (2S,3R)-2-((R)-4-((3R,5R,8R,9S,10S,13R,14S,17R)-3-hydroxy-10,13-dimethyl-hexadecahydro-1H-cyclopenta[a]phenanthren-17-yl)pentanamido)-3-methylpentanoic acid]
cytotoxicity (Jurkat cell line): barely observed | HBeAg absorbance level compared with Comparative Example 1 (LCA) and Comparative Example 2 (UDCA) (HBV [1]): lower | HBeAg absorbance level compared with the negative control group (Mock) (HBV [1]): relatively lower | amount of HBeAg DNA detected compared to the negative control group (Mock) (HBV [2]; 20 µM, HepG2-NTCP cell line, HBV 3000 Geq/cell): relatively less amount | activity at 20 µM (HBV [2]; Hepatitis B virus, read-out: relative replication rate of quantified HBeAg DNA to the negative control group (Mock), 20 µM, HepG2-NTCP cell line, HBV 3000 Geq/cell): < 80%
